Patent US20080300298A1, “Honokiol Derivates For the Treatment of Proliferative Disorders” (priority 2005, published 2008)

Tests used:
[1] = tested on: NF-kB-regulated gene products in H1299 cells; test: Western blot of TNF-induced NF-kB-regulated gene products; assay type: cell-based, human
Method: (A) Honokiol inhibits COX-2, MMP-9, ICAM-1, and VEGF expression induced by TNF. H1299 cells (2×10^6/ml) were left untreated or incubated with […] honokiol for 12 h and then treated with 0.1 nM TNF for different times. Whole-cell extracts were prepared, and […] of the whole-cell lysate was analyzed by Western blotting using antibodies against VEGF, MMP-9, and COX-2. (B) Honokiol inhibits cyclin D1 and c-myc expression induced by TNF. H1299 cells (2×10^6/ml) were left untreated or incubated with […] honokiol for 12 h and then treated with 0.1 nM TNF for different times. Whole-cell extracts were prepared, and […] of the whole-cell lysate was analyzed by Western blotting using antibodies against cyclin D1 and c-myc. […] (C) Honokiol inhibits the expression of anti-apoptotic gene products cIAP1, cIAP2 Bcl-x1, Bcl-2, cFLIP, TRAF2, and survivin. H1299 cells (2×10^6/ml) were left untreated or incubated with […] honokiol for 12 h and then treated with 0.1 nM TNF for different times. Whole-cell extracts were prepared, and […] of the whole-cell lysate was analyzed by Western blotting using antibodies against IAP1, IAP2, bcl-x1, bcl-2, cFLIP, and survivin as indicated.
Western blot analysis. […] Cytoplasmic protein […] was resolved on 10% SDS-PAGE gel, transferred to a nitrocellulose membrane, blocked with 5% non-fat milk, and probed with specific antibodies against IkBa, posphorylated IkBa, p65, and phosphorylated p65. To determine the expression of cyclin D1, COX-2, MMP-9, cIAP-1, TRAF1, Bcl-2, Bfl-1, cFLIP, and survivin in whole-cell extracts of treated cells (2×10^6 cells in 2 ml of medium), […] of protein was resolved on SDS-PAGE and probed by Western blot with specific antibodies as per the manufacturer's recommended protocol. The blots were washed, exposed to HRP-conjugated secondary antibodies for 1 h, and finally detected by ECL reagent (Amersham Pharmacia Biotechnology, Piscataway, N.J.). The bands were quantified using a Personal Densitometer Scan v1.30 using Imagequant software version 3.3 (Molecular Dynamics). […]

[2] = tested on: cyclin D1, p27Kip1, p21Cip1/WAF1, EGFR, AKT, ERK2 in MDA-MB-231 cells; test: Western blot of cell cycle and growth signaling proteins; assay type: cell-based; conditions: MDA-MB-231, 20, 40 and 60 μM, 24 hours
Method: Western blot analysis: Cells were harvested and lysed for total protein extraction in a buffer containing 50 mM Tris-Cl pH 7.4, 150 mM NaCl and 2% NP-40 together with a protease inhibitor cocktail (Comp). Approximately 50-150 μg of protein extract was loaded on a 4-15% polyacrylamide gels (Bio-Rad, Hercules, Calif.), separated electrophoretically and blotted from the gel onto PVDF membrane. The membranes were then blocked with a blocking buffer (5% non-fat dry milk in 1×TBST, i.e. 20 mM Tris-HCl, pH 7.6 containing 0.8% NaCl and 0.1% Tween-20) at room temperature for 1 h. The membranes were incubated with the primary antibodies in blocking buffer, followed by incubation with HRP-labeled secondary antibodies. Immunoactivity was detected with horseradish peroxidase-conjugated secondary antibody and visualized by Enhanced Chemiluminescence (Pierce, Rockford, Ill.). Quantification of the results was performed using AlphaImager 2000 (Alpha Innotech, San Leandro, Calif.).
HNK slows cell cycle in breast cancer cell lines. The effects of HNK (10 μM or 30 μM HNK for 24 hours) on cell cycle were evaluated in MCF-7 and MDA-MB-231 cells. These doses of HNK are less than the LC50 for both cell lines. […] Expression of proteins involved in G1 cell-cycle regulation (massgue) was examined in MDA-MB-231 cells using Western analysis.
HNK inhibits growth signaling pathways. […]

heart AMPKK = test: direct activation of AMPKK in vitro; assay type: biochemical
MCF-7 cells = test: Apoptosis analysis (annexin V and PI); assay type: cell-based; conditions: MCF-7, 60 μM, 24 hours (control 1%±0.5%)
Method: Apoptosis analysis: 5×10^6 cells were placed in the appropriate culture media containing 10% FCS, and treated with either control vehicle or various concentrations of HNK, as indicated for 24 h. Following treatment, cells were harvested, and stained with PI and Annexin V, using the Annexin V-PE Apoptosis Detection Kit I (BD Pharmingen, San Diego, Calif.) according to the manufacturer protocol. Flow cytometry was performed at the Flow Cytometry Core facility of Cedars-Sinai Medical Center, using FACScan (Becton Dickinson, Franklin Lakes, N.J.). For studies using z-VAD-fmk to inhibit caspase activity, 5×10^6 cells were incubated with 50 μM z-VAD-fmk for 60 minutes prior to addition of HNK.
HNK induces apoptosis in breast cancer cell lines. […] The ability of HNK to induce apoptosis and cell death in breast cancer cell lines was investigated. MCF-7 cells were treated with HNK (60 μM for six or 24 hours) and apoptosis and cell death were assessed using annexin V and PI staining (FIG. 5 A). […] Upregulation of BAX was also noticed, (85% increase at 40 μM compared to control, as analyzed by densitometry) but no significant changes in BCL-2 or BAD levels were observed. Only partial inhibition of apoptosis was observed following pretreatment with z-VAD-fmk.

SMILES: C=CCc1ccc(O)c(-c2ccc(O)c(CC=C)c2)c1 [HNK, Honokiol]
- TNF-induced expression of VEGF, COX-2, ICAM-1 and MMP-9 ([1]; H1299): abolished the expression
- TNF-induced expression of cyclin D1 and c-myc ([1]; H1299): abolished, in a time-dependent fashion, the TNF-induced expression of cyclin D1 and c-myc
- TNF-induced expression of anti-apoptotic gene products ([1]; cIAP1, cIAP-2, BCl-2, Bcl-xL, cFLIP, TRAF1, and survivin): inhibited the TNF-induced expression of all of these proteins
- expression of G1 cell-cycle regulation proteins [2]: reduced the levels of cyclin D1, and upregulated expression of the cyclin-dependent kinase inhibitors, p27Kip1 and p21Cip1/WAF1
- direct activation of heart AMPKK (heart AMPKK): does not directly activate heart AMPKK in vitro
- annexin V-positive, PI-negative cells (MCF-7 cells): 16%±3%
